The results in this text go back to patent publication US10160729B2, “Hsp70 modulators and methods for making and using the same” (Memorial Sloan Kettering Cancer Center, priority 2014, dated 2018).

Where only a bound is given, the exact number is not on record here.

In this experiment the test system is MOLM-13 cells. The experiment is described as follows: Caspase cleavage assay (Caspase3, 7 activation). The format is cell-based. The note with it: Homo sapiens, 16 h treatment, caspase substrate Z-DEVD-R110, read-out: c* Concentration at which 50% of the maximum signal was achieved (caspase activation). An outline of the steps: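 Cells (30,000/well, RPMI) treated 16 h with compound or DMSO in triplicate, then given buffer with 10 mM HEPES pH 7.5, 2 mM EDTA, 0.1% CHAPS and 25 μM Z-DEVD-R110. Fluorescence read once signal stabilized; results given as percentage increase in apoptotic cells versus DMSO-treated control.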
For `COc1cc(COc2nc(N3CCN(C)CC3)ncc2Sc2ccc(C(N)=O)c(C(F)(F)F)c2)ccc1F` [compound 137, 4-((4-((4-Fluoro-3-methoxybenzyl)oxy)-2-(4-methylpiperazin-1-yl)pyrimidin-5-yl)thio)-2-(trifluoromethyl)benzamide], the EC50 is under 200 nM.

For `COc1ccc(F)c(COc2nc(N3CCN(C)CC3)ncc2Sc2ccc(C(N)=O)c(C(F)(F)F)c2)c1` [compound 138, 4-((4-((2-Fluoro-5-methoxybenzyl)oxy)-2-(4-methylpiperazin-1-yl)pyrimidin-5-yl)thio)-2-(trifluoromethyl)benzamide], the EC50 was under 200 nM.

On to `CN1CCN(c2ncc(Sc3ccc(C(N)=O)c(C(F)(F)F)c3)c(OCc3cccc(N(C)C)c3)n2)CC1` [compound 139, 4-((4-((3-(Dimethylamino)benzyl)oxy)-2-(4-methylpiperazin-1-yl)pyrimidin-5-yl)thio)-2-(trifluoromethyl)benzamide], for which the EC50 was under 200 nM.

For the molecule `CN1CCN(c2ncc(Sc3ccc(C(N)=O)c(C(F)(F)F)c3)c(NCc3cccc(Cl)c3)n2)CC1` [compound 141, 4-((4-((3-Chlorobenzyl)amino)-2-(4-methylpiperazin-1-yl)pyrimidin-5-yl)thio)-2-(trifluoromethyl)benzamide], the EC50 lay in the range of 1000 to 1200 nM.

Take `COc1cc(COc2nc(N3CCN(C)CC3)ncc2Sc2ccc(N)nc2)ccc1F` [compound 151, 5-((4-((4-Fluoro-3-methoxybenzyl)oxy)-2-(4-methylpiperazin-1-yl)pyrimidin-5-yl)thio)pyridin-2-amine]: the EC50 is under 200 nM.

Take `CN1CCN(c2ncc(Sc3ccc(N)nc3)c(OCc3cccc(C#N)c3)n2)CC1` [compound 152, 3-(((5-((6-Aminopyridin-3-yl)thio)-2-(4-methylpiperazin-1-yl)pyrimidin-4-yl)oxy)methyl)benzonitrile]: the EC50 lay within 200 to 400 nM.

Take `CN1CCN(c2ncc(Sc3ccc(N)nc3)c(OCc3cccc(N(C)C)c3)n2)CC1` [compound 153, 5-((4-((3-(Dimethylamino)benzyl)oxy)-2-(4-methylpiperazin-1-yl)pyrimidin-5-yl)thio)pyridin-2-amine]: the EC50 is under 200 nM.

`CN1CCN(c2ncc(Sc3ccc(N)nc3)c(OCc3ccc(F)c(Cl)c3)n2)CC1` [compound 154, 5-((4-((3-Chloro-4-fluorobenzyl)oxy)-2-(4-methylpiperazin-1-yl)pyrimidin-5-yl)thio)pyridin-2-amine]: the EC50 was under 200 nM.

Turning to `CN1CCN(c2ncc(Sc3ccc(N)nc3)c(OCc3ccc(F)c(Br)c3)n2)CC1` [compound 155, 5-((4-((3-Bromo-4-fluorobenzyl)oxy)-2-(4-methylpiperazin-1-yl)pyrimidin-5-yl)thio)pyridin-2-amine], the EC50 is under 200 nM.

`CN1CCN(c2ncc(Sc3ccc(N)nc3)c(OCc3ccc(F)c(C(F)(F)F)c3)n2)CC1` [compound 156, 5-((4-((4-Fluoro-3-(trifluoromethyl)benzyl)oxy)-2-(4-methylpiperazin-1-yl)pyrimidin-5-yl)thio)pyridin-2-amine]: the EC50 fell in the range of 200 to 400 nM.

For `COc1ccc(F)c(COc2nc(N3CCN(C)CC3)ncc2Sc2ccc(N)nc2)c1` [compound 157, 5-((4-((2-Fluoro-5-methoxybenzyl)oxy)-2-(4-methylpiperazin-1-yl)pyrimidin-5-yl)thio)pyridin-2-amine], the EC50 is under 200 nM.

As for `COc1c(F)ccc(COc2nc(N3CCN(C)CC3)ncc2Sc2ccc(N)nc2)c1F` [compound 158, 5-((4-((2,4-Difluoro-3-methoxybenzyl)oxy)-2-(4-methylpiperazin-1-yl)pyrimidin-5-yl)thio)pyridin-2-amine], the EC50 was under 200 nM.

For the molecule `NC(=O)c1ccc(Sc2cnc(N3CCNCC3)nc2OCc2ccccc2)cc1` [compound 167, 4-((4-(Benzyloxy)-2-(piperazin-1-yl)pyrimidin-5-yl)thio)benzamide], the EC50 was at least 1200 nM.

On to `CC(=O)N1CCN(c2ncc(Sc3ccc(C(N)=O)cc3)c(OCc3ccccc3)n2)CC1` [compound 168, 4-((2-(4-Acetylpiperazin-1-yl)-4-(benzyloxy)pyrimidin-5-yl)thio)benzamide], for which the EC50 is at least 1200 nM.

For the molecule `C[C@@H]1CN(C)[C@@H](C)CN1c1ncc(Sc2ccc(C(N)=O)cc2)c(OCc2ccccc2)n1` [compound 182, 4-((4-(Benzyloxy)-2-((2R,5S)-2,4,5-trimethylpiperazin-1-yl)pyrimidin-5-yl)thio)benzamide], the EC50 is at least 1200 nM.

As for `CN(C)c1cccc(COc2nc(-c3cc[nH]c3)ncc2Sc2ccc(C(N)=O)cc2)c1` [compound 187, 4-((4-((3-(Dimethylamino)benzyl)oxy)-2-(1H-pyrrol-3-yl)pyrimidin-5-yl)thio)benzamide], the EC50 was in the range of 1000 to 1200 nM.

For `COc1cccc(COc2nc(N3CCN(C)C[C@H]3C)ncc2Sc2ccc(C(N)=O)cc2)c1` [compound 193, (R)-4-((2-(2,4-dimethylpiperazin-1-yl)-4-((3-methoxybenzyl)oxy)pyrimidin-5-yl)thio)benzamide], the EC50 was at least 1200 nM.

As for `COc1cccc(COc2nc(N3CC4CC3CN4C)ncc2Sc2ccc(C(N)=O)cc2)c1` (stereo not shown) [compound 195], the EC50 was at least 1200 nM.

`C#CCN1CCN(c2ncc(Sc3ccc(C(N)=O)cc3)c(OCc3cccc(OC)c3)n2)CC1` [compound 198, 4-((4-((3-Methoxybenzyl)oxy)-2-(4-(prop-2-yn-1-yl)piperazin-1-yl)pyrimidin-5-yl)thio)benzamide]: the EC50 is under 200 nM.

As for `CN(C)[C@@H]1CCN(c2ncc(Sc3ccc(C(N)=O)cc3)c(OCc3cccc(OC(F)(F)F)c3)n2)C1` [compound 205, (R)-4-((2-(3-(Dimethylamino)pyrrolidin-1-yl)-4-((3-(trifluoromethoxy)benzyl)oxy)pyrimidin-5-yl)thio)benzamide], the EC50 fell in the range of 400 to 1000 nM.

For `CN(C)[C@@H]1CCN(c2ncc(Sc3ccc(C(N)=O)cc3)c(OCc3ccnc(N)c3)n2)C1` [compound 206, (R)-4-((4-((2-Aminopyridin-4-yl)methoxy)-2-(3-(dimethylamino)pyrrolidin-1-yl)pyrimidin-5-yl)thio)benzamide], the EC50 was 400 to 1000 nM.

Consider `CN(C)[C@@H]1CCN(c2ncc(Sc3ccc(C(N)=O)cc3)c(OCc3ccccc3)n2)C1` [compound 207, (R)-4-((4-(Benzyloxy)-2-(3-(dimethylamino)pyrrolidin-1-yl)pyrimidin-5-yl)thio)benzamide], for which the EC50 fell in the range of 400 to 1000 nM.

With `COc1cc(COc2nc(N3CC[C@@H](N(C)C)C3)ncc2Sc2ccc(C(N)=O)cc2)ccc1F` [compound 208, (R)-4-((2-(3-(Dimethylamino)pyrrolidin-1-yl)-4-((4-fluoro-3-methoxybenzyl)oxy)pyrimidin-5-yl)thio)benzamide], the EC50 was under 200 nM.

Turning to `COc1cc(COc2nc(N3CC[C@@H](N(C)C)C3)ncc2Sc2ccc(C(N)=O)c(Cl)c2)ccc1F` [compound 212, (R)-2-Chloro-4-((2-(3-(dimethylamino)pyrrolidin-1-yl)-4-((4-fluoro-3-methoxybenzyl)oxy)pyrimidin-5-yl)thio)benzamide], the EC50 is under 200 nM.

As for `COc1cc(COc2nc(N3CC[C@@H](N)C3)ncc2Sc2ccc(C(N)=O)c(Cl)c2)ccc1F` [compound 213, (R)-4-((2-(3-Aminopyrrolidin-1-yl)-4-((4-fluoro-3-methoxybenzyl)oxy)pyrimidin-5-yl)thio)-2-chlorobenzamide], the EC50 was at least 1200 nM.
